# Experimental data as given in patent US20250026766A1, “Thiazolopyridyl Amide Derivatives as DNA Polymerase Theta Inhibitors” (BeiGene, Ltd., priority 2022, published 2025).
# Target: Pol Theta (1-894) (Homo sapiens (Human), UniProt O75417)
# Test: Biochemical Pol Theta (1-894) ATPase IC50 assay (ADP-Glo, ssDNA substrate)
# Details: ADP-Glo assay with ssDNA substrate, room temperature
# In short: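 His-tagged human Pol Theta 1-894 from Sf9 baculovirus cells, 2× enzyme solution at 12.5 nM, assayed with ssDNA substrate at room temperature in 40 mM Tris pH 7.5, 20 mM MgCl2, 1 mM DTT, 0.01% BSA, 0.05% Tween-20.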
# Pol Theta (1-894), sequence (O75417 1-894): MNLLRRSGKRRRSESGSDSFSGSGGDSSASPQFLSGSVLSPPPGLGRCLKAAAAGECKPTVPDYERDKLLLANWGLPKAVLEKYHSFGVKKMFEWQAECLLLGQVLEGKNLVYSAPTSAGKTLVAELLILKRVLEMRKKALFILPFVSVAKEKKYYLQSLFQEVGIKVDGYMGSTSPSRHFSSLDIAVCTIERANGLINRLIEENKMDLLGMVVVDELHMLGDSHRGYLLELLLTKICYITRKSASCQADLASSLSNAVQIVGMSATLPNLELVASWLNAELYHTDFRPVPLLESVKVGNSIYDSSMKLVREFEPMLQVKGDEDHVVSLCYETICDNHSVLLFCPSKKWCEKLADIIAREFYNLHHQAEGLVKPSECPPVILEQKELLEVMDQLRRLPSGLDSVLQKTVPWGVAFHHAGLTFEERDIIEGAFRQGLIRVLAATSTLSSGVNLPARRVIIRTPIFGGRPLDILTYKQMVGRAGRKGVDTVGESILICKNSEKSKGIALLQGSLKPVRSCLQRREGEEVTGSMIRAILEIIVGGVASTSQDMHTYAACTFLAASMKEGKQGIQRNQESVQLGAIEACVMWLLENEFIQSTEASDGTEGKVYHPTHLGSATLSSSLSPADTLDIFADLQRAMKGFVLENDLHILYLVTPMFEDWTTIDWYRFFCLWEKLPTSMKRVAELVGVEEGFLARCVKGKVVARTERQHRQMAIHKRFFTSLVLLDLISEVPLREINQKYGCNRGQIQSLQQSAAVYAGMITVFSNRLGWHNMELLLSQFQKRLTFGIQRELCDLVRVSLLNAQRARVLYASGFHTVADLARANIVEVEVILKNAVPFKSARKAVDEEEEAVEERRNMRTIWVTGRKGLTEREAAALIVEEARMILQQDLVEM
row,IC50,Structure (SMILES)
1,44 nM,"COc1ccccc1-c1cnncc1C(=O)Nc1nc2ccc(C(=O)N3CCOCC3)nc2s1 [Example 124, 5-(2-methoxyphenyl)-N-(5-(morpholine-4-carbonyl)thiazolo[5,4-b]pyridin-2-yl)pyridazine-4-carboxamide]"
2,94 nM,"CCS(=O)(=O)Nc1ccc(-c2ccc3nc(NC(=O)c4cnc(C)cc4-c4cc(C#N)ccc4OC)sc3n2)cc1 [Example 35, 4-(5-cyano-2-methoxyphenyl)-N-(5-(4-(ethylsulfonamido)phenyl)thiazolo[5,4-b]pyridin-2-yl)-6-methylnicotinamide]"
3,63 nM,"COc1ccccc1-c1cnncc1C(=O)Nc1nc2ccc(Oc3ccc(S(C)(=O)=O)cc3)nc2s1 [Example 160, 5-(2-methoxyphenyl)-N-(5-(4-(methylsulfonyl)phenoxy)thiazolo[5,4-b]pyridin-2-yl)pyridazine-4-carboxamide]"
4,8.4 nM,"COc1ccc(S(C)(=O)=O)cc1-c1cc(C)ncc1C(=O)Nc1nc2ccc(-c3ccc(C(N)=O)c(C)c3)nc2s1 [Example 175, N-(5-(4-carbamoyl-3-methylphenyl)thiazolo[5,4-b]pyridin-2-yl)-4-(2-methoxy-5-(methylsulfonyl)phenyl)-6-methylnicotinamide]"
5,92 nM,"COc1ccc(C#N)cc1-c1nc(C#N)ccc1C(=O)Nc1nc2ccc(-c3ccc(Cl)cc3)nc2s1 [Example 7, N-(5-(4-chlorophenyl)thiazolo[5,4-b]pyridin-2-yl)-6-cyano-2-(5-cyano-2-methoxyphenyl)nicotinamide]"
6,147 nM,"N#Cc1ccc(C(=O)Nc2nc3ccc(-c4ccc(Cl)cc4)nc3s2)c(N2CCNC(=O)C2)n1 [Example 13, N-(5-(4-chlorophenyl)thiazolo[5,4-b]pyridin-2-yl)-6-cyano-2-(3-oxopiperazin-1-yl)nicotinamide]"
7,8.9 nM,"COc1ccccc1-c1cnncc1C(=O)Nc1nc2ccc(-c3ccc(NC(C)=O)c(C)c3)nc2s1 [Example 165, N-(5-(4-acetamido-3-methylphenyl)thiazolo[5,4-b]pyridin-2-yl)-5-(2-methoxyphenyl)pyridazine-4-carboxamide]"
8,31 nM,"COc1ccccc1-c1cnncc1C(=O)Nc1nc2ccc(C#Cc3ccc(Cl)cc3)nc2s1 [Example 63, N-(5-((4-chlorophenyl)ethynyl)thiazolo[5,4-b]pyridin-2-yl)-5-(2-methoxyphenyl)pyridazine-4-carboxamide]"
9,8.5 nM,"COc1ccc(C#N)cc1-c1cc(Cl)ncc1C(=O)Nc1nc2ccc(-c3ccc(C#N)cc3)nc2s1 [Example 33, 6-chloro-4-(5-cyano-2-methoxyphenyl)-N-(5-(4-cyanophenyl)thiazolo[5,4-b]pyridin-2-yl)nicotinamide]"
10,27 nM,"COCCOc1ccc(-c2ccc3nc(NC(=O)c4cnc(C)cc4-c4cc(C#N)ccc4OC)sc3n2)cc1 [Example 123, 4-(5-cyano-2-methoxyphenyl)-N-(5-(4-(2-methoxyethoxy)phenyl)thiazolo[5,4-b]pyridin-2-yl)-6-methylnicotinamide]"
11,14 nM,"COc1cc(Oc2ccc3nc(NC(=O)c4cnncc4-c4ccccc4OC)sc3n2)ccc1Cl [Example 131, N-(5-(4-chloro-3-methoxyphenoxy)thiazolo[5,4-b]pyridin-2-yl)-5-(2-methoxyphenyl)pyridazine-4-carboxamide]"
12,8.4 nM,"COc1ccccc1-c1cnncc1C(=O)Nc1nc2ccc(-c3c(C)cc(C#N)cc3C)nc2s1 [Example 148, N-(5-(4-cyano-2,6-dimethylphenyl)thiazolo[5,4-b]pyridin-2-yl)-5-(2-methoxyphenyl)pyridazine-4-carboxamide]"
13,27 nM,"COc1ccccc1-c1cnncc1C(=O)Nc1nc2ccc(-c3ccc(Cl)cc3C)nc2s1 [Example 97, N-(5-(4-chloro-2-methylphenyl)thiazolo[5,4-b]pyridin-2-yl)-5-(2-methoxyphenyl)pyridazine-4-carboxamide]"
